Where two headings read alike, the source gives them in different places.
What was measured:
[1] = tested on: 60 different human tumor cell lines (the NCI 60); conditions: CCRF-CEM; HL-60(TB); K-562; MOLT-4; RPMI-8226; SR; A549/ATCC; HOP-62; NCI-H460; NCI-H522; COLO 205; HCT-116; HCT-15; HT29; KM12; SW-620; SF-268; SF-295; SF-539; SNB-75; U251; LOX IMVI; M14; SK-MEL-2; SK-MEL-28; SK-MEL-5; UACC-257; IGROV1; OVCAR-3; OVCAR-8; 786-0; A498; ACHN; RXF393; SN12C; PC-3; DU-145; MCF7; MDA-MB-231/ATCC; HS578T; MDA-MB-435; T-47D
HL-60(TB) [2] = tested on: HL-60(TB)
K-562 [3] = tested on: K-562
MOLT-4 [4] = tested on: MOLT-4
SR [5] = tested on: SR
HS 578T [6] = tested on: HS 578T
HL-60(TB) [7] = test: cells; conditions: Homo sapiens, HL-60, 48 h
K-562 [8] = test: cells; conditions: Homo sapiens, K562, 48 h
MOLT-4 [9] = test: cells; conditions: Homo sapiens, MOLT-4, 48 h
SR [10] = test: cells; conditions: Homo sapiens, 48 h
HS 578T [11] = test: cells; conditions: Homo sapiens, 48 h
MARK3 = MARK3 (Homo sapiens, UniProt P27448); test: Ambit kinase phage display ATP-binding-site ligand binding assay; conditions: read-out: % Inhibition of binding to ATP-binding-site ligand
Sequence of MARK3 (P27448 whole entry, species assumed): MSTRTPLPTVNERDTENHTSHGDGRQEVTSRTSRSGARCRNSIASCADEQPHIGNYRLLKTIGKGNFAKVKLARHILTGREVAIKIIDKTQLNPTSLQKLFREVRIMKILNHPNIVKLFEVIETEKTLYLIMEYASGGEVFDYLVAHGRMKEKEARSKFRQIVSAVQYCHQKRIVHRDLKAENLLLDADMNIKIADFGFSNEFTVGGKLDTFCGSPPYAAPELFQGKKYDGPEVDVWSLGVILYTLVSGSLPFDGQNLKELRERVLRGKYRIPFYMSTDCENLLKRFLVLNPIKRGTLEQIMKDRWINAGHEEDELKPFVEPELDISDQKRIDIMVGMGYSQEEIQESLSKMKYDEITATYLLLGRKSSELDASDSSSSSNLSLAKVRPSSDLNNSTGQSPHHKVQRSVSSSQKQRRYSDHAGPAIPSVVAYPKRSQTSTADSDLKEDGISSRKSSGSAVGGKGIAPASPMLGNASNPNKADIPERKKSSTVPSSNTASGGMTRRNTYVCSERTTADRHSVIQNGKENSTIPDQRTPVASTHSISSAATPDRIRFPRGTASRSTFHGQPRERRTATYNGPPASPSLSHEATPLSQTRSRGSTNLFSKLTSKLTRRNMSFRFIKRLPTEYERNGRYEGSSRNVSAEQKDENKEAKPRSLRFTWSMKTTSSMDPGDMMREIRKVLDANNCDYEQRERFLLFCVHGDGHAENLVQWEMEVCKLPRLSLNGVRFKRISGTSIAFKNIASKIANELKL
Description: (§1) In this assay, protein kinases are cloned into T7 bacteriophage which express the kinase fusion proteins on the phage capsid. T7 kinase-tagged phage are then screened for binding to ATP-binding-site ligands that have been immobilized on a solid support. Phage are screened for binding to the anchored ligands both in the presence of test compound and in its absence (control). Elution of the bound phage by free ligand (ATP-binding site ligand that is not immobilized on a solid support) followed by determination of the phage titre provides a reliable measure of the ability of test compounds to block binding of target kinases to resin-bound ATP-binding-site ligands.
(§2) T7 kinase-tagged phage strains were grown in parallel in microtiter plates in a proprietary bacterial host derived from E. Coli strain BL21. E. Coli were grown to a log phase, infected with T7 kinase-tagged phage, and incubated while shaking at 32° C. until bacterial lysis (approx. 90 min). Lysates were centrifuged (6,000 g) and filtered (0.2 μm). Small molecule ATP-binding-site-specific ligands were anchored to solid supports via a two step process beginning with biotin conjugation followed by treatment of the biotin/small molecule conjugate with streptavidin-coated magnetic beads. […] The phage titre of the eluates was measured by quantitative PCR or by plaque assays. […]

BTK = BTK (Homo sapiens, UniProt Q06187); test: as above; conditions: read-out: % Inhibition of binding to ATP-binding-site ligand
Sequence of BTK (Q06187 whole entry, species assumed): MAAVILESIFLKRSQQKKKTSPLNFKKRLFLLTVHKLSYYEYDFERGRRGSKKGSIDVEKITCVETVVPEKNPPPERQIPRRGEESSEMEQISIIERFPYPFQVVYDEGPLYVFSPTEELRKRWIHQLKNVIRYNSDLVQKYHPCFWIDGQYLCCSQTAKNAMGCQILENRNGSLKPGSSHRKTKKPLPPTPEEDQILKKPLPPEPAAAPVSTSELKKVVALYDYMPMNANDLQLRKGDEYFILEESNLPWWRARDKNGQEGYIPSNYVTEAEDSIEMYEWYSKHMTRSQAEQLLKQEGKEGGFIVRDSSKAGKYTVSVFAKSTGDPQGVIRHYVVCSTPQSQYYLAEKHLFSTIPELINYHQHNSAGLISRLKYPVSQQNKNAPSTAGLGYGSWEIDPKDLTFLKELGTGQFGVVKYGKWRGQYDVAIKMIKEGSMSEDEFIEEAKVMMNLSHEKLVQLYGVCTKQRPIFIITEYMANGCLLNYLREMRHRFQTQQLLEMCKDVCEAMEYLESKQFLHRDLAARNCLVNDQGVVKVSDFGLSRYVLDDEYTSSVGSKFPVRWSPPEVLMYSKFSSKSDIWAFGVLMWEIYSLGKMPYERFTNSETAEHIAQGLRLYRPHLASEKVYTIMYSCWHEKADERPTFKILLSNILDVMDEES
Description: as §1, §2

MAP4K5 = MAP4K5 (Homo sapiens, UniProt Q9Y4K4); test: as above; conditions: read-out: percent inhibition of binding
Sequence of MAP4K5 (Q9Y4K4 whole entry): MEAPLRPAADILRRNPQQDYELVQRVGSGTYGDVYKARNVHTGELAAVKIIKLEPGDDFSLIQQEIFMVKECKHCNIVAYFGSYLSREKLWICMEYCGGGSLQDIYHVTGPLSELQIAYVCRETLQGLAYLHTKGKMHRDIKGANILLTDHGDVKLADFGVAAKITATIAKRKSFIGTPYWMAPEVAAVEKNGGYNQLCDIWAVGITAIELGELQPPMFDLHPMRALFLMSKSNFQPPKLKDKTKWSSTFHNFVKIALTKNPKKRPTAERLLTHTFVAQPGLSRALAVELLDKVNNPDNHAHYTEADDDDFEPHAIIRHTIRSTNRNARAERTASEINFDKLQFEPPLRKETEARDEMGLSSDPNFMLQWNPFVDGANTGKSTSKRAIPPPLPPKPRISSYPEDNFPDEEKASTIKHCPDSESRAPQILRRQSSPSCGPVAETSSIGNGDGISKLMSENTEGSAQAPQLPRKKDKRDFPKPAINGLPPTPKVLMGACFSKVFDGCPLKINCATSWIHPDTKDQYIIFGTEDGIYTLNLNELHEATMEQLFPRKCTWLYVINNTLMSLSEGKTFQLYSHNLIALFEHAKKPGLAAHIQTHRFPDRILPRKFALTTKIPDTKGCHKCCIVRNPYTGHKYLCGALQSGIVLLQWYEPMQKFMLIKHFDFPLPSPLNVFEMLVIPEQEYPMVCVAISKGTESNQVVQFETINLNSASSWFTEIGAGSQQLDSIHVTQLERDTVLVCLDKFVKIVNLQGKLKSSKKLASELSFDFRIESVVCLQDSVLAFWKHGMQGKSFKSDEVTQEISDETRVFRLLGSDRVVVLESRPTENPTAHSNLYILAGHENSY
Description: (§3) This assay is based on ligand-affinity/protein kinase phage display and was employed essentially as described by Fabian et. al [Nature Biotech. […] In this assay, protein kinases are cloned into T7 bacteriophage which express the kinase fusion proteins on the phage capsid. T7 kinase-tagged phage are then screened for binding to ATP-binding-site ligands that have been immobilized on a solid support. Phage are screened for binding to the anchored ligands both in the presence of test compound and in its absence (control). Elution of the bound phage by free ligand (ATP-binding site ligand that is not immobilized on a solid support) followed by determination of the phage titre provides a reliable measure of the ability of test compounds to block binding of target kinases to resin-bound ATP-binding-site ligands.
(§4) T7 kinase-tagged phage strains were grown in parallel in microtiter plates in a proprietary bacterial host derived from E. Coli strain BL21. E. Coli were grown to a log phase, infected with T7 kinase-tagged phage, and incubated while shaking at 32° C. until bacterial lysis (approx. 90 min). Lysates were centrifuged (6,000 g) and filtered (0.2 μm). […] The phage titre of the eluates was measured by quantitative PCR or by plaque assays. […]

ERK2 = ERK2 (Homo sapiens, UniProt P28482); test: as above; conditions: read-out: percent inhibition of binding
Sequence of ERK2 (P28482 whole entry, species assumed): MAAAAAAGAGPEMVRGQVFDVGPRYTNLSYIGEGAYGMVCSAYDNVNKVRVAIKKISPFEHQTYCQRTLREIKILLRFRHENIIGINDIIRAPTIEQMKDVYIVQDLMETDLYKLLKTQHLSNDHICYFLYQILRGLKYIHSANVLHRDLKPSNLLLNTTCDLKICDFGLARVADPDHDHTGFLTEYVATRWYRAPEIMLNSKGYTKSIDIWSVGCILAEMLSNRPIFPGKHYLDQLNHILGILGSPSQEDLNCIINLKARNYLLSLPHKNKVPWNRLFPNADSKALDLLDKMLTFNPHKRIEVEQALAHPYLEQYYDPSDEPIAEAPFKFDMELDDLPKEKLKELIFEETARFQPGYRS
Description: as §1, §2

PHKG2 = PHKG2 (Homo sapiens, UniProt P15735); test: as above; conditions: read-out: percent inhibition of binding
Sequence of PHKG2 (P15735 whole entry): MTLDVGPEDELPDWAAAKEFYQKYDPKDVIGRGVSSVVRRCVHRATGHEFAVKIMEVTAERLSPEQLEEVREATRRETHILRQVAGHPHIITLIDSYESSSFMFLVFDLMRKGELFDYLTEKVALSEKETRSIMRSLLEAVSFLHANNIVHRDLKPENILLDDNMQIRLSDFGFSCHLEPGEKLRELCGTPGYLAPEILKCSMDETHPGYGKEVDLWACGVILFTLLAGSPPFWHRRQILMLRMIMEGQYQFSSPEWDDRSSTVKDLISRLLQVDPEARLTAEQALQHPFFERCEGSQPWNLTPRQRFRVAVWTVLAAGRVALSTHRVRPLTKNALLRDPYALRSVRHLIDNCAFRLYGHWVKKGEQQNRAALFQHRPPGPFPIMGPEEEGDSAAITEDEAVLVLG
Description: as §3, §4

p38-beta = p38-beta (Homo sapiens, UniProt Q15759); test: as above; conditions: read-out: percent inhibition of binding
Sequence of p38-beta (Q15759 whole entry): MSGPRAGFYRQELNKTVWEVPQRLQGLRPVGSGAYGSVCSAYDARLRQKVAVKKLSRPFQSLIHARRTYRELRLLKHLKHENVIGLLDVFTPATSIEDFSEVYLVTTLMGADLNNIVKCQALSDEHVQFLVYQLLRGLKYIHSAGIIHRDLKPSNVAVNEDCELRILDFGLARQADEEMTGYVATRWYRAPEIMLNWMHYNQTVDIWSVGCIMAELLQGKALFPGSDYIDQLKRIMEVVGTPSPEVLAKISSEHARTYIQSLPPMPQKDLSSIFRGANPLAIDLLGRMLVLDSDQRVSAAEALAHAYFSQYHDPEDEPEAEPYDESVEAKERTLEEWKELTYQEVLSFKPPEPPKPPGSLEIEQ
Description: as §1, §2

[12] = Log10 Concentration −4.0, Molar
[13] = Log10 Concentration −5.0, Molar
[14] = Log10 Concentration −6.0, Molar
[15] = Log10 Concentration −7.0, Molar
[16] = Log10 Concentration −8.0, Molar

CCOC(=O)C[C@@H]1C(O[Si](C)(C)C(C)(C)C)[C@H](n2cnc3c(NC(=O)Nc4ccccc4)ncnc32)O[C@@H]1CNC(=O)NC (stereo partly shown) [Compound 10]
GI50 values (potent anticancer activities) [1]: low micromolar | Percent Growth (HL-60(TB) [2]; [12]): 22% | Percent Growth (HL-60(TB) [2]; [13]): −5% | Percent Growth (HL-60(TB) [2]; [14]): 101% | Percent Growth (HL-60(TB) [2]; [15]): 110% | Percent Growth (HL-60(TB) [2]; [16]): 85% | TGI (K-562 [3]; 48 h): 3.29E−5 Molar | Percent Growth (K-562 [3]; [12]): −17% | Percent Growth (K-562 [3]; [13]): 19% | Percent Growth (K-562 [3]; [14]): 89% | Percent Growth (K-562 [3]; [15]): 93% | Percent Growth (K-562 [3]; [16]): 96% | TGI (MOLT-4 [4]; 48 h): 2.33E−5 Molar | Percent Growth (MOLT-4 [4]; [12]): −14% | Percent Growth (MOLT-4 [4]; [13]): 8% | Percent Growth (MOLT-4 [4]; [14]): 76% | Percent Growth (MOLT-4 [4]; [15]): 84% | Percent Growth (MOLT-4 [4]; [16]): 93% | TGI (SR [5]; 48 h): 7.07E−6 Molar | Percent Growth (SR [5]; [12]): −34% | Percent Growth (SR [5]; [13]): −15% | Percent Growth (SR [5]; [14]): 85% | Percent Growth (SR [5]; [15]): 70% | Percent Growth (SR [5]; [16]): 82% | TGI (SW-620; 48 h): 2.84E−5 Molar | Percent Growth (SW-620; [12]): −33% | Percent Growth (SW-620; [13]): 28% | Percent Growth (SW-620; [14]): 97% | Percent Growth (SW-620; [15]): 94% | Percent Growth (SW-620; [16]): 97% | TGI (SK-MEL-28; 48 h): 2.02E−5 Molar | Percent Growth (SK-MEL-28; [12]): −91% | Percent Growth (SK-MEL-28; [13]): 40% | Percent Growth (SK-MEL-28; [14]): 100% | Percent Growth (SK-MEL-28; [15]): 106% | Percent Growth (SK-MEL-28; [16]): 104% | TGI (PC-3; 48 h): 4.85E−6 Molar | Percent Growth (PC-3; [12]): −77% | Percent Growth (PC-3; [13]): −47% | Percent Growth (PC-3; [14]): 103% | Percent Growth (PC-3; [15]): 126% | Percent Growth (PC-3; [16]): 121% | TGI (HS 578T [6]; 48 h): 5.36E−5 Molar | Percent Growth (HS 578T [6]; [12]): −7% | Percent Growth (HS 578T [6]; [13]): 18% | Percent Growth (HS 578T [6]; [14]): 90% | Percent Growth (HS 578T [6]; [15]): 95% | Percent Growth (HS 578T [6]; [16]): 94% | GI50 (HL-60(TB) [7]): 3.01 µM | CC50 (HL-60(TB) [7]; read-out: LC50): > 100 µM | GI50 (K-562 [8]): 3.59 µM | CC50 (K-562 [8]; read-out: LC50): > 100 µM | GI50 (MOLT-4 [9]): 2.39 µM | CC50 (MOLT-4 [9]; read-out: LC50): > 100 µM | GI50 (SR [10]): 2.23 µM | CC50 (SR [10]; read-out: LC50): > 100 µM | GI50 (HS 578T [11]): 3.6 µM | CC50 (HS 578T [11]; read-out: LC50): > 100 µM | inhibition at 10 µM (MARK3): 34% | inhibition at 10 µM (BTK): 35% | inhibition at 10 µM (MAP4K5): 20 to 29% | inhibition at 10 µM (ERK2): 20 to 29% | inhibition at 10 µM (PHKG2): 20 to 29% | inhibition at 10 µM (p38-beta): 20 to 29%

Source: US20100152434A1, “Protein Kinase-binding Nucleosides and Associated Methods” (priority 2007, published 2010)
